In patent publication US20260159525A1, “TRICYCLIC HETEROCYCLES” (Merck Patent GmbH, priority 2021, published 2026) one finds IC50 data, which are given here for 16 compounds.

What all share (type): cell-based
The subject of one experiment is NCI-H226 cells. As to the kind of experiment: Viability assay in NCI-H226 (Yap-dependent) cells, CyQUANT. The following applies: Homo sapiens, NCI-H226 YAP dependent cell line, 96 hour incubation, group symbols. The method in brief:
(§1)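 Cells were seeded 24 h before dosing, then given a 10-point, 1:3 compound series from 30 μM final (0.3% DMSO) in duplicate. After 96 h at 37 °C, viability was read by CyQUANT DNA-dye fluorescence.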

In a further experiment the test system is SW620 Yap KO cells. Description: Viability assay in SW620 Yap KO (Yap independent) cells, CyQUANT. The following applies: Homo sapiens, SW-620, SW620 YAP and TAZ knocked out (YAP independent), 96 hour incubation, n.d. (x) = not detectable below threshold x. The method in brief:
as §1

A further experiment has as its system YAP-TEAD interaction. As to the kind of experiment: SK-HEP-1 reporter assay (8x TEAD responsive elements driving NanoLuc luciferase). The following applies: Homo sapiens, SK-HEP1, SK-HEP-1 cells, 24 hour incubation. The method, boiled down: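 SK-HEP-1 cells carrying a stably integrated 8× TEAD-element NanoLuc reporter, seeded 24 h before dosing, were treated in duplicate with a 10-point dose series (top 30 μM final, 0.3% DMSO) for 24 h at 37°C, 5% CO2. Luciferase activity read by NanoGlo luminescence; IC50 derived from it.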
On the technique in general: In a reporter assay the amount or activity of a reporter protein is the signal.

Setting [1] is: number, or n.d. (x) = not detectable below threshold x.

Broadly, the IC50 is the point on the concentration scale where inhibition reaches its midpoint. A high value points to lower potency. In the case of `Cn1ccc(C(CO)NC(=O)c2cc3c4cn(C)nc4n(-c4ccc(C(F)(F)F)cc4)c3s2)n1` (stereo not drawn) [Compound 96, N-[2-hydroxy-1-(1-methyl-1H-pyrazol-3-yl)ethyl]-4-methyl-7-[4-(trifluoromethyl)phenyl]-9-thia-4,5,7-triazatricyclo[6.3.0.0^2,6]undeca-1(8),2,5,10-tetraene-10-carboxamide], the IC50 was 0.001 to 0.1 µM in the experiment with NCI-H226 cells, above 30 µM with SW620 Yap KO cells and 0.01 to 0.1 µM in the experiment on YAP-TEAD interaction (group symbols).

`Cn1cc2c3cc(C(=O)NCC(O)CO)sc3n(-c3ccc(C(F)(F)F)cc3)c2n1` (stereo not drawn) [Compound 97, N-(2,3-dihydroxypropyl)-4-methyl-7-[4-(trifluoromethyl)phenyl]-9-thia-4,5,7-triazatricyclo[6.3.0.0^2,6]undeca-1(8),2,5,10-tetraene-10-carboxamide]: the results for the IC50 in the experiment on NCI-H226 cells, in the experiment with SW620 Yap KO cells and in the experiment on YAP-TEAD interaction (group symbols) were 0.1 to 1 µM, above 30 µM and 0.001 to 0.01 µM, respectively.

Consider `Cn1cc2c3cc(C(=O)O)sc3n(-c3ccc(C(F)F)cc3)c2n1` [Compound 99, 7-[4-(difluoromethyl)phenyl]-4-methyl-9-thia-4,5,7-triazatricyclo[6.3.0.0^2,6]undeca-1(8),2,5,10-tetraene-10-carboxylic acid], for which the IC50 was 0.1 to 1 µM with NCI-H226 cells, above 30 µM in the experiment with SW620 Yap KO cells and 0.1 to 10 µM in the experiment on YAP-TEAD interaction (group symbols).

As for `CNC(=O)c1cc2c3cn(C)nc3n(-c3ccc(C(F)F)cc3)c2s1` [Compound 100, 7-[4-(difluoromethyl)phenyl]-N,4-dimethyl-9-thia-4,5,7-triazatricyclo[6.3.0.0^2,6]undeca-1(8),2,5,10-tetraene-10-carboxamide], the IC50 with NCI-H226 cells is 0.001 to 0.1 µM; in the experiment on SW620 Yap KO cells, above 30 µM; with YAP-TEAD interaction (group symbols) it was 0.01 to 0.1 µM.

For the compound `CNC(=O)c1cc2c3nn(C)nc3n(-c3ccc(C(F)(F)F)cc3)c2s1` [Compound 102, N,4-dimethyl-7-[4-(trifluoromethyl)phenyl]-9-thia-3,4,5,7-tetraazatricyclo[6.3.0.0^2,6]undeca-1(8),2,5,10-tetraene-10-carboxamide], the figures for the IC50 in the experiment on NCI-H226 cells, with SW620 Yap KO cells and with YAP-TEAD interaction (group symbols) were 0.001 to 0.1 µM, above 30 µM and 0.01 to 0.1 µM, respectively.

Consider `Cn1cc2c3cc(C(=O)N4CC[C@H](O)C4)sc3n(-c3ccc(C(F)F)cc3)c2n1` [Compound 105, (3S)-1-{7-[4-(difluoromethyl)phenyl]-4-methyl-9-thia-4,5,7-triazatricyclo[6.3.0.0^2,6]undeca-1(8),2,5,10-tetraene-10-carbonyl}pyrrolidin-3-ol], for which the IC50 in the experiment on NCI-H226 cells is 0.1 to 1 µM; in the experiment on SW620 Yap KO cells it was above 30 µM; in the experiment with YAP-TEAD interaction (group symbols) it was 0.01 to 0.1 µM.

Consider `Cn1cc2c3cc(C(=O)O)sc3n(-c3ccc(C(F)F)cn3)c2n1` [Compound 117, 7-[5-(difluoromethyl)pyridin-2-yl]-4-methyl-9-thia-4,5,7-triazatricyclo[6.3.0.0^2,6]undeca-1(8),2,5,10-tetraene-10-carboxylic acid], for which the values for the IC50 in the experiment with NCI-H226 cells, in the experiment on SW620 Yap KO cells and with YAP-TEAD interaction (group symbols) were 1 to 10 µM, above 30 µM and 0.1 to 10 µM, respectively.

Consider `Cn1cc2c3cc(C(=O)O)sc3n(-c3ccc(OC(F)(F)F)cn3)c2n1` [Compound 118, 4-methyl-7-[5-(trifluoromethoxy)pyridin-2-yl]-9-thia-4,5,7-triazatricyclo[6.3.0.0^2,6]undeca-1(8),2,5,10-tetraene-10-carboxylic acid], for which the IC50 was 0.1 to 1 µM in the experiment with NCI-H226 cells, above 30 µM with SW620 Yap KO cells and 0.01 to 0.1 µM with YAP-TEAD interaction (group symbols).

Consider `CNC(=O)c1cc2c3cn(C)nc3n(-c3ccc(C(F)F)cn3)c2s1` [Compound 119, 7-[5-(difluoromethyl)pyridin-2-yl]-N,4-dimethyl-9-thia-4,5,7-triazatricyclo[6.3.0.0^2,6]undeca-1(8),2,5,10-tetraene-10-carboxamide], for which the IC50 was 0.1 to 1 µM in the experiment with NCI-H226 cells, above 30 µM in the experiment on SW620 Yap KO cells and above 30 µM with YAP-TEAD interaction (setting [1]).

For `Cn1cc2c3cc(C(=O)N[C@@H](CO)c4ccccn4)sc3n(-c3ccc(C(F)F)cn3)c2n1` [Compound 120, 7-[5-(difluoromethyl)pyridin-2-yl]-N-[(1R)-2-hydroxy-1-(pyridin-2-yl)ethyl]-4-methyl-9-thia-4,5,7-triazatricyclo[6.3.0.0^2,6]undeca-1(8),2,5,10-tetraene-10-carboxamide], the IC50 with NCI-H226 cells was 0.1 to 1 µM; in the experiment on SW620 Yap KO cells it was above 30 µM; with YAP-TEAD interaction (setting [1]) it was above 0.3 µM.

In the case of `CNC(=O)c1cc2c3cn(C)nc3n(-c3ccc(OC(F)F)cn3)c2s1` [Compound 121, 7-[5-(difluoromethoxy)pyridin-2-yl]-N,4-dimethyl-9-thia-4,5,7-triazatricyclo[6.3.0.0^2,6]undeca-1(8),2,5,10-tetraene-10-carboxamide], the figures for the IC50 in the experiment on NCI-H226 cells, with SW620 Yap KO cells and in the experiment with YAP-TEAD interaction (setting [1]) were 0.001 to 0.1 µM, above 30 µM and above 30 µM, respectively.

For the compound `Cn1cc2c3cc(C(=O)N[C@@H](CO)c4ccccn4)sc3n(-c3ccc(OC(F)F)cn3)c2n1` [Compound 122, 7-[5-(difluoromethoxy)pyridin-2-yl]-N-[(1R)-2-hydroxy-1-(pyridin-2-yl)ethyl]-4-methyl-9-thia-4,5,7-triazatricyclo[6.3.0.0^2,6]undeca-1(8),2,5,10-tetraene-10-carboxamide], the IC50 in the experiment on NCI-H226 cells is 0.001 to 0.1 µM; with SW620 Yap KO cells it was above 30 µM; in the experiment with YAP-TEAD interaction (group symbols) it was 0.1 to 10 µM.

As for `C[C@H](CO)NC(=O)c1cc2c3cn(C)nc3n(-c3ccc(OC(F)F)cn3)c2s1` [Compound 123, 7-[5-(difluoromethoxy)pyridin-2-yl]-N-[(2R)-1-hydroxypropan-2-yl]-4-methyl-9-thia-4,5,7-triazatricyclo[6.3.0.0^2,6]undeca-1(8),2,5,10-tetraene-10-carboxamide], the values for the IC50 in the experiment on NCI-H226 cells, with SW620 Yap KO cells and in the experiment with YAP-TEAD interaction (setting [1]) were 0.001 to 0.1 µM, above 30 µM and above 0.3 µM, respectively.

Turning to `CNC(=O)c1cc2c3cn(C)nc3n(-c3ccc(OC(F)(F)F)cn3)c2s1` [Compound 124, N,4-dimethyl-7-[5-(trifluoromethoxy)pyridin-2-yl]-9-thia-4,5,7-triazatricyclo[6.3.0.0^2,6]undeca-1(8),2,5,10-tetraene-10-carboxamide], the IC50 in the experiment on NCI-H226 cells is 0.001 to 0.1 µM; in the experiment on SW620 Yap KO cells, above 3 µM; in the experiment on YAP-TEAD interaction (group symbols) it was 0.1 to 10 µM.

On to `Cn1cc2c3cc(C(=O)N[C@@H](CO)c4ccccn4)sc3n(-c3ccc(OC(F)(F)F)cn3)c2n1` [Compound 125, N-[(1R)-2-hydroxy-1-(pyridin-2-yl)ethyl]-4-methyl-7-[5-(trifluoromethoxy)pyridin-2-yl]-9-thia-4,5,7-triazatricyclo[6.3.0.0^2,6]undeca-1(8),2,5,10-tetraene-10-carboxamide], for which the figures for the IC50 in the experiment on NCI-H226 cells, with SW620 Yap KO cells and in the experiment with YAP-TEAD interaction (group symbols) were 0.001 to 0.1 µM, above 30 µM and 0.1 to 10 µM, respectively.

For the compound `C[C@H](CO)NC(=O)c1cc2c3cn(C)nc3n(-c3ccc(OC(F)(F)F)cn3)c2s1` [Compound 126, N-[(2R)-1-hydroxypropan-2-yl]-4-methyl-7-[5-(trifluoromethoxy)pyridin-2-yl]-9-thia-4,5,7-triazatricyclo[6.3.0.0^2,6]undeca-1(8),2,5,10-tetraene-10-carboxamide], the IC50 in the experiment on NCI-H226 cells was 0.001 to 0.1 µM; in the experiment with SW620 Yap KO cells, above 30 µM; with YAP-TEAD interaction (group symbols), 0.01 to 0.1 µM.
